Key:
Sclerotinia sclerotiorum [1] = test: Antifungal activity against Sclerotinia sclerotiorum assessed as inhibition of mycelial growth in contact phase at 2011 umol/l measured at 20 degC after 5 days; type: functional; settings: 120 h, read-out: GI
Sclerotinia sclerotiorum [2] = test: Fungitoxic activity in Sclerotinia sclerotiorum assessed as inhibition of mycelial growth in volatile phase at 469 umol/l measured at 20 degC after 5 days relative to control; type: functional; settings: 120 h, read-out: GI
Sclerotinia sclerotiorum [3] = test: Fungistatic activity in Sclerotinia sclerotiorum assessed as sclerotial viability measured at 20 degC after 5 days; type: functional, organism-based; settings: 120 h
Sclerotinia sclerotiorum [4] = test: Antifungal activity against Sclerotinia sclerotiorum assessed as inhibition of mycelial growth in volatile phase at 67 umol/l measured at 20 degC after 5 days; type: functional; settings: 120 h, read-out: GI
Sclerotinia sclerotiorum [5] = test: Antifungal activity against Sclerotinia sclerotiorum assessed as inhibition of mycelial growth in contact phase at 1340 umol/l measured at 20 degC after 5 days; type: functional; settings: 120 h, read-out: GI
Sclerotinia sclerotiorum [6] = test: Antifungal activity against Sclerotinia sclerotiorum assessed as inhibition of mycelial growth in volatile phase at 469 umol/l measured at 20 degC after 5 days; type: functional; settings: 120 h, read-out: GI
Sclerotinia sclerotiorum [7] = test: Fungistatic activity in Sclerotinia sclerotiorum assessed as inhibition of mycelial growth in contact phase measured at 20 degC after 5 days; type: functional, organism-based; settings: 120 h
Sclerotinia sclerotiorum [8] = test: Antifungal activity against Sclerotinia sclerotiorum assessed as inhibition of germination in volatile phase at 670 umol/l measured at 20 degC after 5 days; type: functional; settings: 120 h
Sclerotinia sclerotiorum [9] = test: Fungistatic activity in Sclerotinia sclerotiorum assessed as inhibition of carpogenic germination in volatile phase at 34 umol/l measured at 20 degC after 5 days relative to control; type: functional; settings: 120 h
Sclerotinia sclerotiorum [10] = test: Antifungal activity against Sclerotinia sclerotiorum assessed as inhibition of germination in volatile phase at 34 umol/l measured at 20 degC after 5 days; type: functional; settings: 120 h
Sclerotinia sclerotiorum [11] = test: Antifungal activity against Sclerotinia sclerotiorum assessed as inhibition of mycelial growth in contact phase at 469 umol/l measured at 20 degC after 5 days; type: functional; settings: 120 h, read-out: GI
Sclerotinia sclerotiorum [12] = test: In vivo antifungal Sclerotinia sclerotiorum in Pepper (Capsicum annuum L. cv. Sera Demre) assessed as inhibition of mycelial growth in volatile phase at 67 umol/L measured after 10 to 14 weeks; type: functional
Sclerotinia sclerotiorum [13] = test: Antifungal activity against Sclerotinia sclerotiorum assessed as inhibition of mycelial growth in volatile phase at 670 umol/l measured at 20 degC after 5 days; type: functional; settings: 120 h, read-out: GI
Sclerotinia sclerotiorum [14] = test: Antifungal activity against Sclerotinia sclerotiorum assessed as inhibition of mycelial growth in volatile phase at 34 umol/l measured at 20 degC after 5 days; type: functional; settings: 120 h, read-out: GI
Sclerotinia sclerotiorum [15] = test: Antifungal activity against Sclerotinia sclerotiorum assessed as inhibition of mycelial growth in contact phase at 603 umol/l measured at 20 degC after 5 days; type: functional; settings: 120 h, read-out: GI
Sclerotinia sclerotiorum [16] = test: Fungistatic activity in Sclerotinia sclerotiorum assessed as inhibition of mycelial growth in contact phase at 2011 umol/l measured at 20 degC after 5 days relative to control; type: functional; settings: 120 h, read-out: GI
Sclerotinia sclerotiorum [17] = test: In vivo antifungal Sclerotinia sclerotiorum in Pepper (Capsicum annuum L. cv. Sera Demre) assessed as inhibition of mycelial growth in volatile phase at 134 umol/L measured after 10 to 14 weeks; type: functional
Sclerotinia sclerotiorum [18] = test: Fungistatic activity in Sclerotinia sclerotiorum assessed as inhibition of mycelial growth in volatile phase measured at 20 degC after 5 days; type: functional, organism-based; settings: 120 h
Sclerotinia sclerotiorum [19] = test: Antifungal activity against Sclerotinia sclerotiorum assessed as inhibition of mycelial growth in contact phase at 670 umol/l measured at 20 degC after 5 days; type: functional; settings: 120 h, read-out: GI
Sclerotinia sclerotiorum [20] = test: Antifungal activity against Sclerotinia sclerotiorum assessed as inhibition of germination in volatile phase at 67 umol/l measured at 20 degC after 5 days; type: functional; settings: 120 h
Sclerotinia sclerotiorum [21] = test: Antifungal activity against Sclerotinia sclerotiorum assessed as inhibition of mycelial growth in volatile phase at 335 umol/l measured at 20 degC after 5 days; type: functional; settings: 120 h, read-out: GI
Sclerotinia sclerotiorum [22] = test: Antifungal activity against Sclerotinia sclerotiorum assessed as inhibition of germination in volatile phase at 335 umol/l measured at 20 degC after 5 days; type: functional; settings: 120 h
Sclerotinia sclerotiorum [23] = test: Fungitoxic activity in Sclerotinia sclerotiorum assessed as viability in volatile phase at 670 umol/l measured at 20 degC after 5 days relative to control; type: functional; settings: 120 h, read-out: GI
Sclerotinia sclerotiorum [24] = test: Fungistatic activity in Sclerotinia sclerotiorum assessed as viability in volatile phase at 335 umol/l measured at 20 degC after 5 days relative to control; type: functional; settings: 120 h, read-out: GI
Sclerotinia sclerotiorum [25] = test: Fungistatic activity in Sclerotinia sclerotiorum assessed as inhibition of carpogenic germination in volatile phase at 67 umol/l measured at 20 degC after 5 days relative to control; type: functional; settings: 120 h
Sclerotinia sclerotiorum [26] = test: Fungistatic activity in Sclerotinia sclerotiorum assessed as inhibition of carpogenic germination in volatile phase at 335 umol/l measured at 20 degC after 5 days relative to control; type: functional; settings: 120 h
Sclerotinia sclerotiorum [27] = test: Antifungal activity against Sclerotinia sclerotiorum assessed as inhibition of germination in volatile phase at 201 umol/l measured at 20 degC after 5 days; type: functional; settings: 120 h
Sclerotinia sclerotiorum [28] = test: Fungistatic activity in Sclerotinia sclerotiorum assessed as inhibition of carpogenic germination in volatile phase at 670 umol/l measured at 20 degC after 5 days relative to control; type: functional; settings: 120 h

S=C=NCCc1ccccc1 [PHENETHYLISOTHIOCYANATE]
inhibition of growth at 2011 µM (Sclerotinia sclerotiorum [1]): 100% | inhibition of growth at 469 µM (Sclerotinia sclerotiorum [2]): 100% | EC50 (Sclerotinia sclerotiorum [3]): 114 µM | inhibition of growth at 67 µM (Sclerotinia sclerotiorum [4]): 42.7% | inhibition of growth at 1340 µM (Sclerotinia sclerotiorum [5]): 92.5% | inhibition of growth at 469 µM (Sclerotinia sclerotiorum [6]): 64% | EC50 (Sclerotinia sclerotiorum [7]): 650 µM | inhibition at 670 µM (Sclerotinia sclerotiorum [8]): 100% | inhibition at 34 µM (Sclerotinia sclerotiorum [9]): 12.5% | inhibition at 34 µM (Sclerotinia sclerotiorum [10]): 6.7% | inhibition of growth at 469 µM (Sclerotinia sclerotiorum [11]): 5% | inhibition in vivo at 67 µM (Sclerotinia sclerotiorum [12]): 70% | inhibition of growth at 670 µM (Sclerotinia sclerotiorum [13]): 100% | inhibition of growth at 34 µM (Sclerotinia sclerotiorum [14]): 24.3% | inhibition of growth at 603 µM (Sclerotinia sclerotiorum [15]): 24.3% | inhibition of growth at 2011 µM (Sclerotinia sclerotiorum [16]): 100% | inhibition in vivo at 134 µM (Sclerotinia sclerotiorum [17]): 76.7% | EC50 (Sclerotinia sclerotiorum [18]): 144 µM | inhibition of growth at 670 µM (Sclerotinia sclerotiorum [19]): 59.7% | inhibition at 67 µM (Sclerotinia sclerotiorum [20]): 26.7% | inhibition of growth at 335 µM (Sclerotinia sclerotiorum [21]): 51.3% | inhibition at 335 µM (Sclerotinia sclerotiorum [22]): 100% | inhibition of growth at 670 µM (Sclerotinia sclerotiorum [23]): 100% | inhibition of growth at 335 µM (Sclerotinia sclerotiorum [24]): 100% | inhibition at 67 µM (Sclerotinia sclerotiorum [25]): 55% | inhibition at 335 µM (Sclerotinia sclerotiorum [26]): 57.5% | inhibition at 201 µM (Sclerotinia sclerotiorum [27]): 66.7% | inhibition at 670 µM (Sclerotinia sclerotiorum [28]): 82.5%

Source: ChEMBL document CHEMBL3046027, “In vitro and in vivo antifungal activity of synthetic pure isothiocyanates against Sclerotinia sclerotiorum” (Pest Manag Sci, 2011)
